Data set [1] relates to MES-SA. The experiment in a line: Induction of apoptosis in human MES-SA cells assessed as caspase 3/7 activation at 1 uM incubated for 24 hrs by live-cell imaging based fluorescence assay. The format is functional.
The subject of data set [2] is MES-SA. Briefly: Induction of apoptosis in human MES-SA cells assessed as caspase 3/7 activation at 1 uM incubated for 48 to 72 hrs by live-cell imaging based fluorescence assay. The format is functional. Conditions: time lower […], time upper 72.0 hrs.
The subject of data set [3] is MES-SA. The experiment in a line: Induction of apoptosis in human MES-SA cells assessed as necrotic cells at 100 nM incubated for 24 hrs by live/dead orange and TUNEL staining based flow cytometry analysis relative to control. In kind it is functional.
Data set [4] has as its system HeLa. The experiment in a line: Antiproliferative activity against human HeLa cells assessed as reduction in cell viability incubated for 72 hrs by MTT assay. The format is functional, cell-based.
A further data set relates to MCF7. The experiment in a line: Antiproliferative activity against human MCF7 cells assessed as reduction in cell viability incubated for 72 hrs by CelltiterGlo luminescent assay. In kind it is functional, cell-based. The conditions noted are these: MCF7, 72 h. On the technique in general: Cellular ATP, detected with luciferase, serves as a proxy for viable cell number.

The subject of another data set is BT-474. The experiment in a line: Antiproliferative activity against human BT-474 cells assessed as reduction in cell viability incubated for 72 hrs by CelltiterGlo luminescent assay. The conditions noted are these: BT-474, 72 h.
The test system of data set [5] is MES-SA. The experiment in a line: Antiproliferative activity against human MES-SA cells assessed as reduction in cell viability incubated for 72 hrs by CelltiterGlo luminescent assay.
Another data set relates to HT-1080. The experiment in a line: Antiproliferative activity against human HT-1080 cells assessed as reduction in cell viability incubated for 72 hrs by CelltiterGlo luminescent assay. Conditions: HT-1080, 72 h.
The nature of data set [6]: Antiproliferative activity against human Melmet 5 cells assessed as reduction in cell viability incubated for 72 hrs by CelltiterGlo luminescent assay. Conditions: Melmet 5, 72 h.
In another data set the test system is A-375. Briefly: Antiproliferative activity against human A-375 cells assessed as reduction in cell viability incubated for 72 hrs by CelltiterGlo luminescent assay. Conditions: A-375, 72 h.
Data set [7] is described as follows: Antiproliferative activity against human WM1366 cells assessed as reduction in cell viability incubated for 72 hrs by CelltiterGlo luminescent assay. Conditions: WM1366, 72 h.
The nature of data set [8]: Antiproliferative activity against human Hermes 3C cells assessed as reduction in cell viability incubated for 72 hrs by CelltiterGlo luminescent assay. The format is toxicity, cell-based.
Data set [9] is described as follows: Antiproliferative activity against human HEK293 cells assessed as reduction in cell viability incubated for 72 hrs by CelltiterGlo luminescent assay. In kind it is toxicity, cell-based.
The nature of data set [10]: Antiproliferative activity against human RPE-1 cells assessed as reduction in cell viability incubated for 72 hrs by CelltiterGlo luminescent assay. In kind it is toxicity, cell-based. Conditions: RPE-1 cells (TERT-RPE1).
Data set [11] deals with HeLa. Briefly: Antiproliferative activity against human HeLa cells assessed as reduction in cell viability incubated for 72 hrs by CelltiterGlo luminescent assay. The format is functional, cell-based.
The test system of data set [12] is HeLa. Briefly: Antiproliferative activity against human HeLa cells assessed as inhibition of cell growth incubated for 72 hrs in absence of verapamil by MTT assay. In kind it is functional, cell-based. For orientation: Formazan colour is commonly taken as a measure of viable cells.
Data set [13] has as its system HeLa. Briefly: Antiproliferative activity against human HeLa cells assessed as inhibition of cell growth incubated for 72 hrs in presence of verapamil by MTT assay. In kind it is functional, cell-based.
Data set [14] relates to MES-SA. Briefly: Cell cycle distribution in human MES-SA cells assessed as accumulation of cells in G1 phase cells at 100 nM incubated for 24 hrs by Hoechst 33258 staining based flow cytometry (reference value: 60%). The format is functional. (In general: A flow cytometer gives signals particle by particle.)
The subject of data set [15] is MES-SA. The experiment in a line: Cell cycle distribution in human MES-SA cells assessed as accumulation of cells in G2 phase cells at 100 nM incubated for 24 hrs by Hoechst 33258 staining based flow cytometry (reference value: 12 %). In kind it is functional.
In data set [16] the test system is MES-SA. The experiment in a line: Cell cycle distribution in human MES-SA cells assessed as accumulation of cells in M phase cells at 100 nM incubated for 24 hrs by Hoechst 33258 staining based flow cytometry (reference value: 1.3 %). The format is functional.
Data set [17] concerns MES-SA. The experiment in a line: Cell cycle distribution in human MES-SA cells assessed as accumulation of cells in S phase cells at 100 nM incubated for 24 hrs by Hoechst 33258 staining based flow cytometry (reference value: 27 %). In kind it is functional.
Data set [18] has as its system MES-SA. Briefly: Induction of apoptosis in human MES-SA cells assessed as late apoptotic cells at 100 nM incubated for 24 hrs by live/dead orange and TUNEL staining based flow cytometry analysis relative to control. The format is functional.
Data set [19] concerns MES-SA. Briefly: Induction of apoptosis in human MES-SA cells assessed as apoptotic cells at 100 nM incubated for 24 hrs by live/dead orange and TUNEL staining based flow cytometry analysis relative to control. The format is functional.
Data set [20] deals with MES-SA. The experiment in a line: Induction of apoptosis in human MES-SA cells assessed as live cells at 100 nM incubated for 24 hrs by live/dead orange and TUNEL staining based flow cytometry analysis relative to control. The format is functional.
Data set [21] relates to MES-SA. The experiment in a line: Induction of apoptosis in human MES-SA cells assessed as increase in caspase 3/7 activation at 100 nM by live-cell imaging based fluorescence assay. The format is functional. Conditions: time 3.0 day, TDE = time-dependent effect.
The next data set has as its target Tubulin (Homo sapiens) (UniProt P68371+Q9H4B7+P0DPH7+P68366+Q13509+Q71U36+P04350+Q3ZCM7+P07437+P68363+Q9BQE3+Q6PEY2+Q13885+Q9BVA1+Q9BUF5). Briefly: Inhibition of tubulin polymerization in human MES-SA cells assessed as appearance of spherical shaped cells at 10 nM incubated for 24 hrs by DAPI staining based confocal microscopy analysis. The format is cell-based.

Data set [22] has as its system MES-SA. The experiment in a line: Cell cycle distribution in human MES-SA cells assessed as accumulation of cells in G2/M phase cells at 100 nM incubated for 24 hrs by Hoechst 33258 staining based flow cytometry (reference value: 13.3 %). In kind it is functional.
The subject of the next data set is MDA-MB-468. The experiment in a line: cells. The conditions noted are these: Homo sapiens, MDA-MB-468, 72 h.
A short description of a further data set: cells. The conditions noted are these: Homo sapiens, MDA-MB-468, 72 h.
The subject of data set [23] is CAKI-1. The experiment in a line: Antiproliferative activity against human CAKI-1 cells assessed as reduction in cell viability incubated for 72 hrs by CelltiterGlo luminescent assay.
For data set [24], the system named is CAKI-1. The experiment in a line: Antiproliferative activity against human CAKI-1 cells assessed as reduction in cell viability incubated for 72 hrs by CelltiterGlo luminescent assay. The conditions noted are these: CAKI-1, 72 h.
Data set [25] has as its system MES-SA. Briefly: Induction of apoptosis in human MES-SA cells assessed as dead cells at 100 nM incubated for 24 hrs by live/dead orange and TUNEL staining based flow cytometry analysis relative to control. In kind it is functional.

The source made the active and inactive calls. The calls are words filed in the database; no cut-off is given here.

The source of these data is ChEMBL document CHEMBL5579852, “Promising anti-proliferative indolic benzenesulfonamides alter mechanisms with sulfonamide nitrogen substituents” (Eur J Med Chem, 2024).

Description for MDA-MB-468: Antiproliferative activity against human MDA-MB-468 cells assessed as reduction in cell viability incubated for 72 hrs by CelltiterGlo luminescent assay

As for `CN[C@@H]1C[C@H]2O[C@@](C)([C@@H]1OC)n1c3ccccc3c3c4c(c5c6ccccc6n2c5c31)C(=O)NC4`, the outcome in the data set on MES-SA [1] was Active. In addition, the outcome in the data set on MES-SA [2] was inactive.
The IC50 is the concentration needed to halve the response being measured. `COc1cc(S(=O)(=O)N(C)c2ccc3c(c2)c(C#N)cn3C)cc(OC)c1OC`: the Activity is reported as 2.3% in the data set with MES-SA [3]; 4% with MES-SA [14]; 10% with MES-SA [15]; 75.3% in the data set on MES-SA [16]; 6% in the data set on MES-SA [17]; 1.3% in the data set with MES-SA [18]. In addition, the Activity is 5% in the data set on MES-SA [19], 91.4% with MES-SA [20], “Tde” with MES-SA [21] and 83.6% with MES-SA [22]. Moreover, the IC50 in the data set on HeLa [4] amounted to 8 nM; with MCF7, 12.3 nM; in the data set with BT-474 it was 16.3 nM; in the data set with MES-SA [5], 6.3 nM; in the data set on HT-1080 it was 15.3 nM; in [6], 10.6 nM. For the same compound, the 50% inhibitory concentration (IC50) in the data set with A-375 is 11.7 nM; in [7], 20.2 nM; in the data set with HeLa [11] it was 16 nM; in the data set with HeLa [12], 25.7 nM; in the data set with HeLa [13], 24.6 nM; in the data set with MDA-MB-468, 28 nM. For the same compound, the IC50 in “cells” stood at 69.5 nM. The IC50 at 72 h was determined as 45.6 nM in data set [8], 29 nM in data set [9] and 13.2 nM in data set [10]. The inhibition entry at Tubulin (Homo sapiens) is “Active”. Besides, the result in the data set on CAKI-1 [23] was inactive.
As to `COc1cc(S(=O)(=O)Nc2ccc3c(c2)c(C#N)cn3C)cc(OC)c1OC`, the Activity in the data set with MES-SA [3] worked out at 4.5%; in the data set with MES-SA [14], 4%; in the data set with MES-SA [15], 22%; in the data set with MES-SA [16] it was 67.7%; in the data set on MES-SA [17], 6%; with MES-SA [18], 1.8%. The Activity is 5.8% with MES-SA [19]; 88% in the data set with MES-SA [20]; 12% in the data set on MES-SA [25]; “Tde” in the data set on MES-SA [21]; 83.6% with MES-SA [22]. For the same compound, the IC50 in the data set on HeLa [4] came out at 43 nM; in the data set on MCF7, 12.1 nM; in the data set with BT-474, 57.5 nM; with MES-SA [5], 11.8 nM; in the data set with HT-1080, 12.1 nM; in [6], 1.6 nM. Besides, the IC50 in the data set with A-375 was determined as 33.2 nM; in data set [7], 65.7 nM; with CAKI-1 [24] it was 32.4 nM; with HeLa [11], 13.3 nM; with HeLa [12], 43 nM; in the data set with HeLa [13] it was 29.1 nM. Moreover, the IC50 in the data set on MDA-MB-468 turned out to be 11.8 nM; in “cells”, 12.4 nM. Also, the IC50 at 72 h in data set [8] came to 87.1 nM; in data set [9], 18.2 nM; in [10] it was 52.8 nM. The inhibition entry at Tubulin (Homo sapiens) is “inactive”.
On to `COc1cc(S(=O)(=O)N(CC#N)c2ccc3c(ccn3C)c2)cc(OC)c1OC`, for which the Activity in the data set on MES-SA [3] is reported as 4.5%; with MES-SA [14], 4%; in the data set on MES-SA [15], 35%; with MES-SA [16], 48.6%; in the data set with MES-SA [17], 6%; in the data set on MES-SA [18], 0.5%. Besides, the Activity in the data set on MES-SA [19] was 3.1%; with MES-SA [20], 92%; in the data set with MES-SA [25], 8%; with MES-SA [21], “Tde”; in the data set on MES-SA [22], 83.6%. The half-maximal inhibitory concentration (IC50) with HeLa [4] was determined as 1.7 nM; in the data set with MCF7 it was 13.7 nM; in the data set with BT-474, 68.3 nM; in the data set with MES-SA [5] it was 8.9 nM; in the data set on HT-1080, 9.9 nM; in data set [6] it was 8.9 nM. In addition, the IC50 in the data set on A-375 amounted to 22.1 nM; in data set [7], 52.8 nM; with CAKI-1 [24], 56.2 nM; with HeLa [11], 11 nM; in the data set with HeLa [12], 22.3 nM; with HeLa [13], 16.3 nM. The results for the IC50 in the data set on MDA-MB-468 and in “cells” were 13 nM and 14.8 nM, respectively. Further, the IC50 at 72 h in [8] is 44.7 nM; in data set [9] it was 23.4 nM; in [10], 80.4 nM. In addition, the inhibition result at Tubulin (Homo sapiens) is “inactive”.
